The test has as its system ES cells or the iPS cells. Put plainly: Sphere formation and Pax6 immunostaining after 18 days of suspension culture. Format: cell-based, human. How it is done: On the day before induction of differentiation, in order to separate the ES cells or the iPS cells, which had been cultured in a culture medium to which 10 μM Y-27632 (WAKO) had been added, from the SNL feeder cells, the SNL cells were removed with CTK and the remaining cells were then dissociated using Accumax (ICT). The cells were transferred on a 96-well plate (Lipidure-coat 96-well plate (NOF Corporation)) in an amount of 9×10^3 cells per well. Thereafter, the cells were subjected to a suspension culture in DMEM/F12 (WAKO) comprising 50 μM Y-27632 (WAKO), 10 μM SB43152 (Sigma), 10 ng/ml bFGF (Invitrogen), various types of Wnt inhibitors (DKK1 (R & D, 500 ng/ml), C59 (Cellagen Technology, 2-10 nM), XAV (Stemgent, 500 nM-2 μM) or IWP4 (Stemgent, 500 nM-2.5 μM)), LDN193189 (Stemgent), KSR (Invitrogen), 0.1 mM MEM non-essential amino acid (Invitrogen), 0.1 mM 2-mercaptoethanol (WAKO), and 2 mM L-Gln (Invitrogen) (initiation of differentiation induction, day 0). […] Furthermore, the expression levels of the Foxg1, Lhx2, Emx2 and CoupTF1 genes in the obtained spheres were measured according to a qPCR method (FIG. 4B). […]

For the molecule `Cc1cc(-c2ccc(CC(=O)Nc3ccc(-c4cccnc4)cc3)cc2)ccn1` [C59], the “sphere formation in the suspension culture” value (1 μM C59, 18 days) was “no spheres were formed”. Under “without C59, 2.5 nM and 10 nM C59, 18 days”, the “Pax6-positive cells in spheres (immunostaining)” value is “positive cells were confirmed under all conditions”.
